One molecule from patent publication US20170008876A1, “Metal Chelate Compounds for Binding to the Platelet Specific Glycoprotein IIb/IIIa” (BAYER PHARMA AKTIENGESELLSCHAFT, priority 2014, published 2017) can be followed below.

Where two headings read alike, the source gives them in different places.

Data set [1] has as its system human activated platelets. As to the kind of experiment: Binding of compounds to human activated platelets (Gd by ICP-MS in pellet and supernatant). The data set is classed as cell-based. The method, then:
For each experiment fresh blood was taken from a volunteer using 10 mL citrate-tubes (Sarstedt S-Monovette 02.1067.001, 10 mL, Citrate 3.13%). The 10 mL citrate-tubes were carefully inverted 10 times to mix blood and anticoagulant. The tubes were stored in an incubator at a temperature of 37° C. until centrifugation (Heraeus miniTherm CTT with integrated rotation- and turning device, turning speed: 19 rotations per minute, Heraeus Instruments GmbH, Hanau/Germany).
For plasma preparation tube centrifugation was carried out for 15 minutes at 1811 g at room temperature (Eppendorf, Centrifuge 5810R). To produce platelet-rich plasma blood was centrifuged 15 minutes at 201 g at room temperature. The tubes were stood for 30 min at room temperature to get a better separation. The separated platelet-rich plasma was finally centrifuged for further 3 min at 453 g to remove the remaining erythrocytes. The platelet-rich plasma was activated using a final concentration of 5 μM Adenosindiphosphate (ADP, Sigma). The activated platelet-rich plasma was incubated 20 minutes […] with different concentrations of gadolinium-labeled compound and subsequently was centrifuged 3 minutes at 1360 g. 20 μL of supernatant was taken to determine the concentration (n=3). The pellet was resuspended and washed two times with at least 750 μL plasma and subsequently was redispered in 750 μL plasma and 50 μL calciumchloride (50 μL 2%).

The test system of data set [2] is in vitro platelet-rich thrombi. As to the kind of experiment: Magnetic resonance imaging of in vitro platelet-rich thrombi. Format: cell-based, human. The note with it: 20 min incubation, washed three times, 1.5 T 3D TSE. The method, then:
Magnetic resonance imaging of in vitro platelet-rich thrombi and incubation solution (example 1) using a 3D turbo spin echo sequence (1.5 T, Siemens Avanto, small extremity coil, TR 1050 ms, TE 9.1 ms, 0.5×0.5×0.6 mm^3). In FIG. 2a an in vitro control thrombus without the addition of a contrast agent is shown. The signal intensity of the control thrombus is slightly higher than the surrounding medium but clearly lower than the signal of the in vitro thrombus which was incubated with Example 1 as depicted in FIG. 2b. In FIG. 2c the incubation solution with a final concentration of 10 μmol substance/L of example 1 in human plasma is represented. The signal intensity is higher than the surrounding plasma solutions in the in vitro platelet-rich thrombi 2a and 2b.
The in vitro thrombus in FIG. 2b is incubated with the solution which is depicted in FIG. 2c. After 20 min incubation period the thrombi was washed three times with plasma solution.
Magnetic resonance imaging of in vitro platelet-rich thrombi and incubation solution (Example 1) using a 3D turbo spin echo sequence (1.5 T, Siemens Avanto, small extremity coil, TR 1050 ms, TE 9.1 ms, 0.5×0.5×0.6 mm^3). In FIG. 3a an in vitro control thrombus without the addition of a contrast agent is shown. […]

The subject of another data set is thrombus. The note with it: 40 min after last injection; for Gadolinium concentration: 4 repeated doses of 1 μM Gadolinium/kg bw i.v.; for thrombus/blood ratio: total dose 4 μM Gadolinium/kg bw. The protocol:
The specific binding of the compound described in Example 1 was investigated in cynomolgus monkey (female 3.0 kg bodyweight).
The monkey was anesthetized with a mixture of Xylazin (Rompun®, Bayer HealthCare, Leverkusen, Germany), 0.12 mL/Kg and Ketamine (Ketavet®, Pfizer) 0.12 mL/Kg b.w. i.m. While the investigation, small amounts of Xylazin/Ketamine (1+1) have been injected i.m. if required. The left common carotid artery was exposed 10 min with iron-III-chloride solution (10%). Following thrombus induction the monkey received 1 μmol Gadolinium/kg bodyweight (equals 0.125 μmol molecule/kg bodyweight) i.v. Afterwards, the right carotid artery was exposed 8 min with iron-III-chloride solution (10%) and the monkey received a repeated dose of 1 μmol Gadolinium/kg bodyweight iv.
After the first two contrast media applications the right carotid artery was exposed surgically and a polyethylene-tube ([…] Polyethylene Tubing, Clay Adams, PE50), which was roughened previously by sandpaper (600—CAMI Grit designation), was inserted into the vessel, advanced into the descending aorta and was left there for 30 minutes to allow for the development of a thrombus on the rough surface of the tube. The monkey received 1 μmol Gadolinium/kg bodyweight (equals 0.125 μmol molecule/kg bodyweight) i.v. 30 min and 90 min post catheterization. 40 min after the last contrast media application the animal was sacrificed using Pentobarbital (Narcoren). The gadolinium concentrations in blood, thombus of the left and right carotis, right carotis, left carotis, jugular vein and aorta were determined using an inductively coupled plasma mass spectrometry (ICP-MS Agilent 7500a).

Data set [3] deals with human GPIIb/IIIa receptor (Homo sapiens, UniProt P05106+P08514). As to the kind of experiment: biochemical.
Procedure: Affinity assay: In the first step human GPIIb/IIIa purified from human platelets was immobilized on a 96-well solid plate. After 48 hours the plates were washed and the unspecific binding sites were blocked with Roti®-Block. […] In the next step, the plates were simultaneously incubated with a tritium labeled known GPIIb/IIIa binder (^3H) mixed with increasing concentrations of the novel compounds (inhibitor). […] The fraction of tritiated compound (^3H), which is not displaced by inhibitor, was measured in a microplate scintillation counter. […]
The maximum value of tritiated reference compound was determined without addition of inhibitor (n=8). […]
After one hour the plate was washed three times with phosphate-buffered saline (200 μL per well, Dulbecco's Phosphate Buffered Saline (D-PBS (+)), GIBCO®, Invitrogen). […] After 15 min at room temperature the plates were measured at the microplate scintillation counter (TopCount NXT v2.13, Perkin Elmer, Packard Instrument Company).
In the first step human glycoprotein IIb/IIIa, which is purified from human platelets, was immobilized on a 96-well solid plate. […] The fraction of tritiated reference compound, which is not displaced by inhibitor, was measured at a microplate scintillation counter. […] By means of this assay the affinities (1050 values) could be determined.
The mark [4] stands for this setting: incubation concentration 1 μM molecule, incubation time 3 min.
[5] abbreviates: incubation concentration 1 μM molecule, incubation time 20 min.
[6] abbreviates: incubation concentration 10 μM molecule, incubation time 20 min.

Chain of human GPIIb/IIIa receptor (P08514 32-887 limits assumed): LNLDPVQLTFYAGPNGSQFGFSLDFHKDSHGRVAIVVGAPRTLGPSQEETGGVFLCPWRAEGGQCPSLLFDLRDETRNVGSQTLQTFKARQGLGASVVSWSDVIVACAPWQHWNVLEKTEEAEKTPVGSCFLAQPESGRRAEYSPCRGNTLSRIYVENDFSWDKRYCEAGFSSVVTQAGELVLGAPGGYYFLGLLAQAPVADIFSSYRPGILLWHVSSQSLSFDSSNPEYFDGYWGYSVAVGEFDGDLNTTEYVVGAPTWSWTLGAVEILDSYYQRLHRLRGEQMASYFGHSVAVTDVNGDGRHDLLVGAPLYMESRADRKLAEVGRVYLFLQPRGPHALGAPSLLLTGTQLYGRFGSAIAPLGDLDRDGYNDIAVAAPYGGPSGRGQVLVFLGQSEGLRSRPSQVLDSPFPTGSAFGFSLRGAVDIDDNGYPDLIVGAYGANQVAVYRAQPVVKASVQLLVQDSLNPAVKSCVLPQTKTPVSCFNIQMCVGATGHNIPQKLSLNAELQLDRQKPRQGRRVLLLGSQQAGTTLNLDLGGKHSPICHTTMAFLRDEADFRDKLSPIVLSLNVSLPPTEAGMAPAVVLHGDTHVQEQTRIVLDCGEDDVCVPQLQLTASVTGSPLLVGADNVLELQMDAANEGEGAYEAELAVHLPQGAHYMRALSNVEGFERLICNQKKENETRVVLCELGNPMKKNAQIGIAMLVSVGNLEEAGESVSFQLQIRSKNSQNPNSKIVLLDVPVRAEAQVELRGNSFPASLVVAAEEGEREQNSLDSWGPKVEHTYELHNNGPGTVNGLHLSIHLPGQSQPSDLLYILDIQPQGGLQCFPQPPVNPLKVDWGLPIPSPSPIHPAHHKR
Chain of human GPIIb/IIIa receptor (P05106 27-788): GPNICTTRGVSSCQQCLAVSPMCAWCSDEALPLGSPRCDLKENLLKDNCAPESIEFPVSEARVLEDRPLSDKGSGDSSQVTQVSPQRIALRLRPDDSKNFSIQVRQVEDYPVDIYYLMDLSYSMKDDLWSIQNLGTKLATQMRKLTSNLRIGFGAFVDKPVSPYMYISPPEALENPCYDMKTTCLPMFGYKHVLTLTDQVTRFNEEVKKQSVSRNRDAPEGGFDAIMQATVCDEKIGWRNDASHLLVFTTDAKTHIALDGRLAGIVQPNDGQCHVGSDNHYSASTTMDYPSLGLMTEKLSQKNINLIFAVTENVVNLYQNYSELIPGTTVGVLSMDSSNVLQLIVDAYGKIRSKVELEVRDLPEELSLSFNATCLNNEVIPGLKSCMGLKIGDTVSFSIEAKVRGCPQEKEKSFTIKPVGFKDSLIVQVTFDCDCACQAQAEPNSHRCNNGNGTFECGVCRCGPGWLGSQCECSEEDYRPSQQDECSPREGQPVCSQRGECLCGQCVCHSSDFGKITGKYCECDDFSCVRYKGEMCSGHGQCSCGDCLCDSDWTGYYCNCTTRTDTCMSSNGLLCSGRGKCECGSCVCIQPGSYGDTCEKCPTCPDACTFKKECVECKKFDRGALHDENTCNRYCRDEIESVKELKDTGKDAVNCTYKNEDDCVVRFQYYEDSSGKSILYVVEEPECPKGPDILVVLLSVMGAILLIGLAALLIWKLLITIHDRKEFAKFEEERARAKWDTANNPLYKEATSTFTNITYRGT

On to `CC(C(=O)NCC(=O)NCC(NC(=O)CNC(=O)C(C)N1CCN(CC(=O)O)CCN(CC(=O)O)CCN(CC(=O)O)CC1)C(=O)NCC(NC(=O)C(CNC(=O)CNC(=O)C(C)N1CCN(CC(=O)O)CCN(CC(=O)O)CCN(CC(=O)O)CC1)NC(=O)CNC(=O)C(C)N1CCN(CC(=O)O)CCN(CC(=O)O)CCN(CC(=O)O)CC1)C(=O)NCC(NC(=O)C(CNC(=O)C(CNC(=O)CNC(=O)C(C)N1CCN(CC(=O)O)CCN(CC(=O)O)CCN(CC(=O)O)CC1)NC(=O)CNC(=O)C(C)N1CCN(CC(=O)O)CCN(CC(=O)O)CCN(CC(=O)O)CC1)NC(=O)C(CNC(=O)CNC(=O)C(C)N1CCN(CC(=O)O)CCN(CC(=O)O)CCN(CC(=O)O)CC1)NC(=O)CNC(=O)C(C)N1CCN(CC(=O)O)CCN(CC(=O)O)CCN(CC(=O)O)CC1)C(=O)NCCCCc1cccc(C#Cc2cncc([C@H](CC(=O)O)NC(=O)[C@@H]3CCCN(C(=O)CCC4CCNCC4)C3)c2)c1)N1CCN(CC(=O)O)CCN(CC(=O)O)CCN(CC(=O)O)CC1` (stereo partly drawn) [Example 1, Octagadolinium 2,3-bis-{[2,3-bis({2,3-bis[(N-{2-[4,7,10-tris(carboxylatomethyl)-1,4,7,10-tetraazacyclododecan-1-yl]propanoyl}glycyl)amino]propanoyl}amino)propanoyl]amino}-N-(4-{3-[(5-{(1S)-2-carboxy-1-[({(3R)-1-[3-(piperidin-4-yl)propanoyl]piperidin-3-yl}carbonyl)amino]ethyl}pyridin-3-yl)ethynyl]phenyl}butyl)propanamide], for which the “Concentration within platelet pellet” value is reported as 28.2 ± 1.8 μM Gd in data set [1] (incubation concentration 0.1 μM molecule, incubation time 20 min); 32.7 ± 7.8 μM Gd in data set [1] (setting [4]); 28.8 ± 2.2 μM Gd in data set [1] (setting [5]); 35.9 ± 1.6 μM Gd in data set [1] (setting [6]). Besides, the pellet/supernatant in data set [1] (setting [4]) was 131 ± 36; in data set [1] (setting [5]), 108 ± 18; in data set [1] (setting [6]), 81 ± 5. Also, the “MRI signal intensity of incubated in vitro thrombus versus control thrombus” value in data set [2] (0.1 μmol substance/L (0.8 μmol Gd/L) in human plasma) and in data set [2] (10 μmol substance/L in human plasma) was “clearly higher signal than the control thrombi” each time. Also, the Gadolinium concentration with thrombus (blood) is recorded as 3.3 ± 0.7 (n = 5) μM Gd; in the data set on thrombus (left carotis), 9.4 ± 0.4 (n = 4) μM Gd; in the data set with thrombus (right carotis), 4.3 ± 0.7 (n = 4) μM Gd; in the data set with thrombus (right jugular vein) it was 4.0 μM Gd; with thrombus (thrombus left carotis), 29.3 μM Gd; in the data set on thrombus (thrombus right carotis) it was 41.0 μM Gd. The thrombus/blood ratio was determined as 8.9 in the data set with thrombus (thrombus left carotis) and 12.4 in the data set on thrombus (thrombus right carotis). In data set [3], the IC50 stood at 0.04 µM.
